According to PMC8436246 (ACS Medicinal Chemistry Letters, 2021):
Blank lines part the entries; values can stand above or below the molecule they belong to.

Tests used:
[1] = tested on: EMT6 tumor-implanted BALB/c mice; assay: pharmacokinetic-pharmacodynamic experiments in EMT6 tumor-bearing BALB/c mice; format: in vivo
[2] = mouse pharmacokinetic study, oral bioavailability; format: in vivo, C57BL/6 mice
[3] = in vitro stability in mouse hepatocytes; format: in vitro ADME

SMILES: O=C(O)[C@H]1NCC[C@H]1CCCB(O)O [Compound 4a]
- serum and tumor arginine levels ([1]; 30, 100, 300 mpk BID p.o., 1 h after fourth dose, vs saline control): substantially elevated
- pharmacodynamic effects on serum and tumor arginine levels with or without codosing of mDX400 ([1]; p.o. 250 mpk BID, 14 day, ± mDX400 i.p. 5 mpk Q5D): comparable pharmacodynamic effects
- tolerability / body weight ([1]; p.o. 250 mpk BID, alone and with mDX400 (i.p. 5 mpk Q5D), 14 day repeated dosing): well tolerated

- combined exposures of 18 and 23 (% F) ([2]; 23 dosed orally, 10 mpk, mouse): 27 % F
- clearance ([2]; mouse pharmacokinetic experiments): rapid clearance
SMILES: C[C@H](N)C(=O)N[C@H]1CN[C@H](C(=O)O)[C@@H]1CCCB(O)O [Compound 23]

SMILES: CC(C)[C@H](N)C(=O)N[C@H]1CN[C@H](C(=O)O)[C@@H]1CCCB(O)O [Compound 24a]
- metabolic stability [3]: good metabolic stability was not achieved
